{
  "source": "patent US8604048B2",
  "about": "“Pyridocarbazole type compounds and applications thereof” (Centre National de la Recherche Scientifique, priority 2009, dated 2013)",
  "key": {"[1]": {"target": "T1, recombinant human LIMK1 (Homo sapiens, UniProt P53667)", "T1 construct": "6His (N); purchased Millipore 14-656", "T1 sequence (P53667 whole entry)": "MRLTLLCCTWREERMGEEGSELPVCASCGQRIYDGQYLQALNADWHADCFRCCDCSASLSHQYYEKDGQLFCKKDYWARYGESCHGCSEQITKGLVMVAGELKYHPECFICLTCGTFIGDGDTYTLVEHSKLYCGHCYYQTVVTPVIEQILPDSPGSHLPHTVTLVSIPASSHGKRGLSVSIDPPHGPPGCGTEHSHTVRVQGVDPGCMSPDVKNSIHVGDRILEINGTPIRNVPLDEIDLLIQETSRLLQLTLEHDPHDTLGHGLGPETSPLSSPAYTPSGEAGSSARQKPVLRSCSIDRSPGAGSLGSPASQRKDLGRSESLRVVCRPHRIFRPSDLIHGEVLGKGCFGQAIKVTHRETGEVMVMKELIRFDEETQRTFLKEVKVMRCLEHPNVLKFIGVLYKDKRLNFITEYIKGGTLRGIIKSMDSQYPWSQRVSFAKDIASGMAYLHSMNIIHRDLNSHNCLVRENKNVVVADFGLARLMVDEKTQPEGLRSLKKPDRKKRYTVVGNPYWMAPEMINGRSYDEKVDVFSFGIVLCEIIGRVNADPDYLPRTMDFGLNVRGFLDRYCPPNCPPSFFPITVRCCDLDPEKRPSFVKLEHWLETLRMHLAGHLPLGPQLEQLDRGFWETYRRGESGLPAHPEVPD", "test": "Radiometric LIMK1 kinase assay", "format": "biochemical", "conditions": "Lineweaver-Burk plots", "method": "Compounds were tested in a radiometric LIMK1 assay performed in a final volume of 25 μl containing 3 μl of compound or equivalent amount of DMSO as control, 2 μl (1 ng) of N-terminal 6His-tagged recombinant human LIMK1 (Millipore #14-656, in 20 mM MOPS pH=7.0, 1 mM EDTA, 0.01% NP-40, 5% glycerol, 0.1% β-mercaptoethanol, 1 mg·ml^−1 Bovine Serum Albumin) and a mixture containing […] pH=7.0, 200 μM EDTA, 70 μM of recombinant GST-cofilin 1, 25 mM Mg(OAc)2, and 360 μM [γ-^32P]-ATP. Assays were performed at 30° C. for 10 minutes before termination by the addition of 5 μl of 3% orthophosphoric acid. 25 μL aliquots were then spotted onto P80 filter square (4 cm^2). Filters were rinsed three times for 5 minutes by 0.5% orthophosphoric acid at 4° C. and transferred to scintillation vial. Following addition of scintillation cocktail (Ultima Gold, Perkin-Elmer), ^32P incorporation was measured using a scintillation counter.\nFIG. 10 illustrates the inhibition of LIMK1 by Compound 1 (H06). Radiometric LIMK1 kinase assay was performed as described in Example 2; the following conditions were tested: without LIMK1 (‘−LIMK1’), with LIMK1 (1 ng) in presence of 5 μM H06 (‘5 μM H06’), 25 μM H06 (‘25 μM H06’) or with equivalent amount of DMSO (‘Ctl’).\nError bars represent standard error mean. […]"}, "[2]": {"target": "T1, recombinant human LIMK1", "test": "LIMK1 inhibition reversibility assay (size-exclusion chromatography)", "format": "biochemical", "conditions": "2 μM compound, input vs flow-through after size-exclusion chromatography", "method": "N-terminal 6H s-tagged recombinant human LIMK1 (Millipore #14-656, 62.5 ng) was incubated with […] Compound 1 (or equivalent amount of DMSO) for 10 minutes at 4° C. in a final volume of 100 μL. Size-exclusion chromatography of this mixture was then performed using 1 ml Biospin P-6 column (Biorad, equilibrated in 20 mM MOPS pH=7.0, 1 mM EDTA, 0.01% NP-40, 5% glycerol, 0.1% β-mercaptoethanol, 1 mg·ml^−1 Bovine Serum Albumin). LIMK1 kinase activity in input and flow-through were then assayed by radiometric LIMK1 kinase assay.\nLIMK1 inhibition reversibility was assayed in vitro, in the conditions of Example 2, in the presence of 2 μM Compound 1 (H06), prior (‘input’) or after size-exclusion chromatography (‘flow-through’). Error bars represent standard error mean."}, "[3]": {"system": "purified tubulin", "test": "In vitro assembly of purified tubulin", "format": "biochemical", "conditions": "tubulin 1 mg/ml; Compound 1 at 25, 50, 100 μM", "method": "FIG. 5 compares the effects of the Compound 1 of the invention with the effect of paclitaxel (Taxol®) on the assembly of the tubulin purified in vitro. Purified tubulin (1 mg/ml) is incubated in PEM buffer in the presence of GTP (1 mM), MgCl2 (5 mM), DAPI (10 μM) at 37° C. The effect of Compound 1 of the invention at various concentrations (×25 μM, ⊚ 50 μM and Δ 100 μM) is compared to that of paclitaxel (Taxol®) (▪) and of DMSO ( ? );\nIn order to know whether Compound 1 of the invention exerts its stabilizing effect via a direct action on tubulin, such as paclitaxel does, or by means an effector, its effect on the in vitro assembly of tubulin in microtubules has been analyzed. The first experiments were carried out on purified tubulin (1 mg/ml)."}, "[4]": {"system": "MES-SA DX5 cells", "test": "Cell growth test (MTT), MES-SA DX5", "format": "cell-based", "conditions": "Homo sapiens; MES-SA DX5 (multi-drug resistant, P-glycoprotein), MTT test after 48 h; read-out: IC50 (concentration necessary to inhibit 50% of cell growth)", "method": "(§1) The cell growth tests are carried out in transparent 96-well microplates (Greiner) after having seeded 100 μl/well of a cell solution having 2·10^5 cells/ml to 5·10^5 cells/ml (depending on the cell lines). After incubating for 24 h at 37° C. with 5% CO2, the culture medium is removed and replaced with solutions of the molecule to be tested at various concentrations. The cells are incubated with these molecules for an additional 48 h at 37° C. with 5% CO2. After elimination of the medium, the cells are washed with blank RPMI (Gibco, Invitrogen) then incubated with 3-(4,5-dimethylthiazol-2-yl)-2,5-diphenyltetrazolium bromide or MTT (0.5 mg/ml final concentration) for 4 h at 37° C. with 5% CO2. MTT (Sigma Aldrich) makes it possible to estimate the viability of the cells by measuring the activity of a mitochondrial enzyme. Indeed, in living cells, mitochondrial dehydrogenases are capable of cleaving the tetrazolium ring, thus leading to the formation of formazan crystals that are insoluble in an aqueous medium. These crystals are dissolved with the addition of a solubilizing solution (isopropanol, 10% Triton X100, 0.1 N HCl). After stirring, the absorbance is measured at 570 nm using the FLUOstar OPTIMA microplate reader. […]\n(§2) The viability of the cells was evaluated using an MTT test after 48 h of exposure with various concentrations of molecules (from 100 μM to 0.001 μM). […]"}, "[5]": {"system": "MCF-7 cells", "test": "Cell growth test (MTT), MCF-7", "format": "cell-based", "conditions": "Homo sapiens, MCF7; MCF-7, MTT test after 48 h; read-out: IC50 (concentration necessary to inhibit 50% of cell growth)", "method": "as §1, §2"}},
  "data": [
    {"smiles": "Cc1c2cc[nH]c(=O)c2c(C)c2c1[nH]c1ccc(OC(=O)c3ccccc3)cc12", "note": "[Compound 1, 9-benzoyloxy-5,11-dimethyl-2H,6H-pyrido[4,3-b]carbazol-1-one]", "values": [
      {"measurement": "Inhibition mechanism on LIMK1", "setting": "[1]; 70 nM and 280 nM compound", "value": "ATP competitor"},
      {"measurement": "Ki", "setting": "[1]; ATP competition", "value": "~0.06", "unit": "µM"},
      {"measurement": "Reversibility of LIMK1 inhibition in vitro", "setting": "[2]", "value": "reversible"},
      {"measurement": "Assembly of purified tubulin in vitro", "setting": "[3]", "value": "No assembly is observed"},
      {"measurement": "IC50", "setting": "[4]", "value": 27.4, "unit": "µM"},
      {"measurement": "IC50", "setting": "[5]", "value": 62.2, "unit": "µM"}
    ]}
  ]
}
